T/C data for 13 compounds are collected here from PubChem BioAssay AID342 (DTP/NCI, 2004).

By T/C is commonly meant the ratio of treated to control.

Several values for one entry are separate records, joined by “and”; a condition that tells them apart may be missing. Equal entries are not always repeated.

The subject of this assay is Swiss mice, Sarcoma 180 sc, mean tumor weight T/C. Nature of the assay: NCI In Vivo Anticancer Drug Screen. Data for tumor model Sarcoma 180 (subcutaneous) in Swiss mice. The settings on record: endpoint: mean tumor weight, higher = larger tumour. The method, boiled down: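 Tumor-bearing mice, transplantable tumor; readout survival or tumor size; result = T/C, treated vs vehicle control.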

Setting [1] is: dose: 200.0 mg/kg/injection, schedule: Q01DX007 (ip), vehicle: carboxymethylcellulose (CMC).

`Nc1nc2n[nH]nc2c(=O)[nH]1`: the T/C reads like this: (dose: 12.5 mg/kg/injection, schedule: Q01DX007 (ip), vehicle: other) 118 % of control; (dose: 12.5 mg/kg/injection, schedule: Q#A X014 (ip), vehicle: other) 101 % of control; (dose: 15.75 mg/kg/injection, schedule: Q01DX007 (ip), vehicle: other) 78 % of control; (dose: 25.0 mg/kg/injection, schedule: Q01DX007 (ip), vehicle: other) 85 % of control; (dose: 25.0 mg/kg/injection, schedule: Q#A X014 (ip), vehicle: other) 68 % of control; (dose: 31.5 mg/kg/injection, schedule: Q01DX007 (ip), vehicle: carboxymethylcellulose (CMC)) 109 % of control. Further, the T/C (dose: 31.5 mg/kg/injection, schedule: Q01DX007 (ip), vehicle: other) is 69 % of control; the T/C (dose: 31.5 mg/kg/injection, schedule: Q01DX007 (ip), vehicle: water) is 43 % of control; the T/C (dose: 50.0 mg/kg/injection, schedule: Q01DX007 (ip), vehicle: other) is 70 % of control; the T/C (dose: 50.0 mg/kg/injection, schedule: Q#A X014 (ip), vehicle: other) is 38 % of control; the T/C (dose: 50.4 mg/kg/injection, schedule: Q01DX007 (ip), vehicle: other) was 84 % of control; the T/C (dose: 63.0 mg/kg/injection, schedule: Q01DX007 (ip), vehicle: carboxymethylcellulose (CMC)) is 58 % of control. Also, the T/C was 54 % of control and 60 % of control (dose: 63.0 mg/kg/injection, schedule: Q01DX007 (ip), vehicle: other); 57 % of control (dose: 63.0 mg/kg/injection, schedule: Q01DX007 (ip), vehicle: water); 63 % of control (dose: 84.0 mg/kg/injection, schedule: Q01DX007 (ip), vehicle: other); 54 % of control (dose: 94.5 mg/kg/injection, schedule: Q01DX007 (ip), vehicle: carboxymethylcellulose (CMC)); 15 % of control (dose: 94.5 mg/kg/injection, schedule: Q01DX007 (ip), vehicle: water); 95 % of control and 116 % of control (dose: 100.0 mg/kg/injection, schedule: Q01DX007 (ip), vehicle: other). The T/C is 64 % of control (dose: 100.0 mg/kg/injection, schedule: Q#A X014 (ip), vehicle: other); 39 % of control (dose: 126.0 mg/kg/injection, schedule: Q01DX007 (ip), vehicle: carboxymethylcellulose (CMC)); 33 % of control (dose: 126.0 mg/kg/injection, schedule: Q01DX007 (ip), vehicle: other); 18 % of control (dose: 126.0 mg/kg/injection, schedule: Q01DX007 (ip), vehicle: water); 70 % of control (dose: 200.0 mg/kg/injection, schedule: Q01DX007 (ip), vehicle: other); 52 % of control (dose: 400.0 mg/kg/injection, schedule: Q01DX007 (ip), vehicle: other).

In the case of `CC[C@H](c1ccc(O)cc1)[C@@H](CC)c1ccc(O)cc1`, the T/C (dose: 3.8 mg/kg/injection, schedule: Q01DX007 (sc), vehicle: steriod suspending solution) is 186 % of control; the T/C (dose: 7.5 mg/kg/injection, schedule: Q01DX007 (sc), vehicle: steriod suspending solution) was 67 % of control; the T/C (dose: 15.0 mg/kg/injection, schedule: Q01DX007 (sc), vehicle: steriod suspending solution) was 37 % of control and 43 % of control; the T/C (dose: 62.0 mg/kg/injection, schedule: Q01DX007 (sc), vehicle: steriod suspending solution) was 49 % of control and 67 % of control; the T/C (dose: 125.0 mg/kg/injection, schedule: Q01DX007 (sc), vehicle: steriod suspending solution) was 40 % of control and 43 % of control; the T/C (dose: 250.0 mg/kg/injection, schedule: Q01DX007 (sc), vehicle: steriod suspending solution) is 54 % of control.

`CCCCNC(=O)c1n[se]nc1NC(N)=O`: the T/C is 94 % of control (dose: 15.0 mg/kg/injection, schedule: Q01DX007 (ip), vehicle: carboxymethylcellulose (CMC)) and 114 % of control (dose: 30.0 mg/kg/injection, schedule: Q01DX007 (ip), vehicle: carboxymethylcellulose (CMC)).

Consider `CC(=O)N[C@H]1CC[C@H]2[C@@H]3CCC4=CC(=O)CC[C@]4(C)[C@H]3CC[C@]12C`, for which the T/C was 105 % of control (dose: 5.0 mg/kg/injection, schedule: Q#A X014 (sc), vehicle: steriod suspending solution); 94 % of control (dose: 50.0 mg/kg/injection, schedule: Q#A X014 (sc), vehicle: steriod suspending solution); 78 % of control (dose: 100.0 mg/kg/injection, schedule: Q#A X014 (sc), vehicle: steriod suspending solution).

`CCCCCCCCCCOP(N)(=O)OCCCCCCCCCC`: the T/C is 56 % of control and 64 % of control (dose: 27.75 mg/kg/injection, schedule: Q#A X014 (ip), vehicle: carboxymethylcellulose (CMC)); 60 % of control and 63 % of control (dose: 41.5 mg/kg/injection, schedule: Q#A X014 (ip), vehicle: carboxymethylcellulose (CMC)).

Consider `O=c1cn[nH]c(=O)[nH]1`, for which the T/C (dose: 62.5 mg/kg/injection, schedule: Q#A X014 (ip), vehicle: carboxymethylcellulose (CMC)) was 103 % of control; the T/C (dose: 125.0 mg/kg/injection, schedule: Q#A X014 (ip), vehicle: carboxymethylcellulose (CMC)) is 77 % of control; the T/C (dose: 250.0 mg/kg/injection, schedule: Q#A X014 (ip), vehicle: carboxymethylcellulose (CMC)) was 73 % of control; the T/C (dose: 500.0 mg/kg/injection, schedule: Q#A X014 (ip), vehicle: carboxymethylcellulose (CMC)) is 45 % of control.

As for `CCCCCCCCCCCCCC1=C(O)C(=O)C(CC2=C(O)C(=O)C(CCCCCCCCCCCCC)=C(O)C2=O)=C(O)C1=O`, the T/C (dose: 50.0 mg/kg/injection, schedule: Q01DX007 (ip), vehicle: carboxymethylcellulose (CMC)) is 66 % of control and 80 % of control; the T/C (dose: 100.0 mg/kg/injection, schedule: Q01DX007 (ip), vehicle: carboxymethylcellulose (CMC)) was 73 % of control; the T/C under setting [1] was 101 % of control.

For the compound `COc1ccc(C[C@H]2NC[C@H](O)[C@H]2OC(C)=O)cc1`, the T/C runs as follows: (dose: 3.13 mg/kg/injection, schedule: Q01DX007 (ip), vehicle: saline) 65 % of control; (dose: 6.25 mg/kg/injection, schedule: Q01DX007 (ip), vehicle: saline) 69 % of control; (dose: 12.5 mg/kg/injection, schedule: Q01DX007 (ip), vehicle: saline) 58 % of control; (dose: 25.0 mg/kg/injection, schedule: Q01DX007 (ip), vehicle: saline) 56 % of control and 66 % of control; (dose: 50.0 mg/kg/injection, schedule: Q01DX007 (ip), vehicle: saline) 108 % of control; (dose: 100.0 mg/kg/injection, schedule: Q01DX007 (ip), vehicle: saline) 104 % of control.

On to `O=S(c1ccc(Cl)cc1)c1ccc(Cl)cc1`, for which the T/C is 105 % of control (dose: 250.0 mg/kg/injection, schedule: Q01DX007 (ip), vehicle: carboxymethylcellulose (CMC)) and 96 % of control (dose: 500.0 mg/kg/injection, schedule: Q01DX007 (ip), vehicle: carboxymethylcellulose (CMC)).

With `COc1cccc2c1C(=O)c1c(O)c3c(c(O)c1C2=O)C[C@@](O)(C(C)=O)C[C@@H]3OC1CC(N)C(O)C(C)O1` (some centres undefined), the T/C is 86 % of control (dose: 1.0 mg/kg/injection, schedule: Q01DX007 (sc), vehicle: steriod suspending solution); 54 % of control and 42 % of control (dose: 5.0 mg/kg/injection, schedule: Q01DX007 (sc), vehicle: steriod suspending solution).

Turning to `CCCN(C)/N=N/c1nc[nH]c1C(N)=O`, the T/C (dose: 31.0 mg/kg/injection, schedule: Q01DX007 (ip), vehicle: carboxymethylcellulose (CMC)) was 55 % of control; the T/C (dose: 46.0 mg/kg/injection, schedule: Q01DX007 (ip), vehicle: carboxymethylcellulose (CMC)) was 37 % of control; the T/C (dose: 62.0 mg/kg/injection, schedule: Q01DX007 (ip), vehicle: carboxymethylcellulose (CMC)) is 34 % of control.

With `O=[N+]([O-])c1ccc2c(N=Nc3c(O)ccc4ccccc34)c(O)cc(S(=O)(=O)O)c2c1`, the T/C reads like this: (dose: 65.0 mg/kg/injection, schedule: Q01DX007 (ip), vehicle: saline) 70 % of control; (dose: 95.0 mg/kg/injection, schedule: Q01DX007 (ip), vehicle: saline) 82 % of control; (dose: 145.0 mg/kg/injection, schedule: Q01DX007 (ip), vehicle: saline) 66 % of control; (dose: 330.0 mg/kg/injection, schedule: Q01DX007 (ip), vehicle: saline) 49 % of control.

Take `CCCCOC(=O)C1(N)CCCC1`: the T/C reads like this: (dose: 60.0 mg/kg/injection, schedule: Q01DX007 (ip), vehicle: carboxymethylcellulose (CMC)) 72 % of control; (dose: 90.0 mg/kg/injection, schedule: Q01DX007 (ip), vehicle: carboxymethylcellulose (CMC)) 72 % of control; (dose: 135.0 mg/kg/injection, schedule: Q01DX007 (ip), vehicle: carboxymethylcellulose (CMC)) 33 % of control; (dose: 148.0 mg/kg/injection, schedule: Q01DX007 (ip), vehicle: saline) 54 % of control; under setting [1], 12 % of control; (dose: 202.0 mg/kg/injection, schedule: Q01DX007 (ip), vehicle: carboxymethylcellulose (CMC)) 33 % of control. Besides, the T/C reads like this: (dose: 225.0 mg/kg/injection, schedule: Q01DX007 (ip), vehicle: saline) 33 % of control; (dose: 336.0 mg/kg/injection, schedule: Q01DX007 (ip), vehicle: saline) 11 % of control.
